Assay results reported in ChEMBL document CHEMBL6092179, “Discovery of CLKs inhibitors for the treatment of non-small cell lung cancer” (Eur J Med Chem, 2024).
Activity calls are given as the source filed them. The rule behind the calls is not given here.

Tests used:
NCI-H1299 [1] = assay: Induction of apoptosis in human NCI-H1299 cells assessed as viable cells at 0.25 uM incubated for 24 hrs by annexin V-FITC/PI staining based flow cytometric analysis (reference value: 95 %); type: functional; conditions: read-out: Activity
NCI-H1299 [2] = assay: Induction of apoptosis in human NCI-H1299 cells assessed as early apoptotic cells at 2.5 uM incubated for 24 hrs by annexin V-FITC/PI staining based flow cytometric analysis (reference value: 0.49 %); type: functional
[3] = molecular target: T1, Dual specificity protein kinase CLK1 (Homo sapiens, UniProt P49759); assay: Inhibition of CLK1 (unknown origin) at 100 nM by ADP-Glo assay relative to control
Target sequence in this assay (P49759 whole entry, looked up): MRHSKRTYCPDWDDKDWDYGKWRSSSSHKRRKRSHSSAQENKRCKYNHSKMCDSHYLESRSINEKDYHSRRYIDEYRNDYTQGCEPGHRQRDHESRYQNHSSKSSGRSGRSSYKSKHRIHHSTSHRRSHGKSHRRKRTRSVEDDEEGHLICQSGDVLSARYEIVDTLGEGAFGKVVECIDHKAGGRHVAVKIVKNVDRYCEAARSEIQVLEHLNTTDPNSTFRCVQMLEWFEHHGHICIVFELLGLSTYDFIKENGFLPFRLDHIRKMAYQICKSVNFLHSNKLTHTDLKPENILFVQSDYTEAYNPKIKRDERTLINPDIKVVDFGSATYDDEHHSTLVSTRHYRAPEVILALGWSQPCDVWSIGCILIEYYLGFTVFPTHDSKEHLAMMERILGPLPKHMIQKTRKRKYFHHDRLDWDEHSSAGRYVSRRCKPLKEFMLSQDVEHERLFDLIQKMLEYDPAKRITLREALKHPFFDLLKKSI

NCI-H1299 [4] = assay: Induction of apoptosis in human NCI-H1299 cells assessed as viable cells at 0.1 uM incubated for 24 hrs by annexin V-FITC/PI staining based flow cytometric analysis (reference value: 95 %); type: functional; conditions: read-out: Activity
NCI-H1299 [5] = assay: Induction of apoptosis in human NCI-H1299 cells assessed as early apoptotic cells at 0.25 uM incubated for 24 hrs by annexin V-FITC/PI staining based flow cytometric analysis (reference value: 0.49 %); type: functional
[6] = molecular target: T1, Dual specificity protein kinase CLK1; assay: Inhibition of CLK1 (unknown origin) by ADP-Glo assay
Target sequence in this assay (P49759 whole entry): as the sequence (P49759 whole entry, looked up) above

A549 = assay: cells; conditions: Homo sapiens, A549, 48 h
Description: Antiproliferative activity against human A549 cells assessed as inhibition of cell growth incubated for 48 hrs by MTT assay

NCI-H1299 [7] = assay: Induction of apoptosis in human NCI-H1299 cells assessed as downregulation of MCL-1 expression at 0.1 to 1 uM incubated for 48 hrs by Western blotting analysis; type: functional, cell-based; conditions: dose 0.1-1 µM
NCI-H1299 [8] = assay: Inhibition of Wnt pathway in human NCI-H1299 cells assessed as downregulation of c-Myc expression at 0.1 to 1 uM incubated for 48 hrs by Western blotting analysis; type: cell-based; conditions: dose 0.1-1 µM
[9] = molecular target: T1, Dual specificity protein kinase CLK1; assay: Inhibition of CLK in human NCI-H1299 cells assessed as downregulation of SRSF5 phosphorylation at 0.1 to 1 uM incubated for 1 hr by Western blotting analysis; type: cell-based; conditions: dose 0.1-1 µM
Target sequence in this assay (P49759 whole entry, looked up): as above

NCI-H1299 [10] = assay: Induction of apoptosis in human NCI-H1299 cells at 0.1 to 2.5 uM incubated for 24 hrs by annexin V-FITC/PI staining based flow cytometric analysis relative to control; type: functional; conditions: dose 0.1-2.5 µM
NCI-H1299 [11] = assay: Induction of apoptosis in human NCI-H1299 cells assessed as viable cells at 1 uM incubated for 24 hrs by annexin V-FITC/PI staining based flow cytometric analysis (reference value: 95 %); type: functional; conditions: read-out: Activity
NCI-H1299 [12] = assay: Induction of apoptosis in human NCI-H1299 cells assessed as late apoptotic cells at 1 uM incubated for 24 hrs by annexin V-FITC/PI staining based flow cytometric analysis (reference value: 2.23 %); type: functional
cells = conditions: Homo sapiens, Osimertinib-resistant HCC827AR cell, 48 h
Description: Antiproliferative activity against human Osimertinib-resistant HCC827AR cell assessed as inhibition of cell growth incubated for 48 hrs by MTT assay

[13] = molecular target: T1, Dual specificity protein kinase CLK1; assay: Inhibition of CLK in human NCI-H1299 cells assessed as downregulation of SRSF4 phosphorylation at 0.1 to 1 uM incubated for 1 hr by Western blotting analysis; type: cell-based; conditions: dose 0.1-1 µM
Target sequence in this assay (P49759 whole entry, looked up): as above

[14] = molecular target: Dual specificity protein kinase CLK4 (Homo sapiens, UniProt Q9HAZ1); assay: Inhibition of CLK4 (unknown origin) at 100 nM by ADP-Glo assay relative to control
Dual specificity protein kinase CLK4, sequence (Q9HAZ1 whole entry, looked up): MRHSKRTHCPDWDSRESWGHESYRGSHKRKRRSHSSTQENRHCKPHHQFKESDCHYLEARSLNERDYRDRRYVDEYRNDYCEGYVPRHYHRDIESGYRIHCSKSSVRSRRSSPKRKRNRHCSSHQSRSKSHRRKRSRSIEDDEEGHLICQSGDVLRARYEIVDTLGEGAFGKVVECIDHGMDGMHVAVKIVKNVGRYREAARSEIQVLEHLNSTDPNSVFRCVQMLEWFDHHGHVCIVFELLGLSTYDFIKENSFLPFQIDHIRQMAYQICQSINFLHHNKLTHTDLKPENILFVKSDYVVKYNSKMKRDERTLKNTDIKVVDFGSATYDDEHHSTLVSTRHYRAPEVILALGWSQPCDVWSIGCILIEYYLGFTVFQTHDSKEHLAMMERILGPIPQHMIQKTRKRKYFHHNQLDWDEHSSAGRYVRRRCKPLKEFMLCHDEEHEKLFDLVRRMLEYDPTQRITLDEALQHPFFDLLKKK

[15] = test system: Osimertinib-resistant NCI-H1975 cell; assay: cells; conditions: Homo sapiens, 48 h
Description: Antiproliferative activity against human Osimertinib-resistant NCI-H1975 cell assessed as inhibition of cell growth incubated for 48 hrs by MTT assay

NCI-H1299 [16] = assay: Inhibition of colony formation in human NCI-H1299 cells incubated for 7 days by crystal violet staining based analysis; type: functional, cell-based; conditions: time 7.0 day
[17] = test system: Osimertinib-resistant NCI-H1975 cell; assay: cells; conditions: Homo sapiens, 96 h
Description: Antiproliferative activity against human Osimertinib-resistant NCI-H1975 cell cultured as 3D spheroids assessed as inhibition of cell growth incubated for 96 hrs by CellTiter-Glo luminescence assay

NCI-H1299 [18] = assay: Induction of apoptosis in human NCI-H1299 cells assessed as viable cells at 0.5 uM incubated for 24 hrs by annexin V-FITC/PI staining based flow cytometric analysis (reference value: 95 %); type: functional; conditions: read-out: Activity
NCI-H1299 [19] = assay: Induction of apoptosis in human NCI-H1299 cells assessed as late apoptotic cells at 0.25 uM incubated for 24 hrs by annexin V-FITC/PI staining based flow cytometric analysis (reference value: 2.23 %); type: functional
[20] = molecular target: T2, Dual specificity protein kinase CLK3 (Homo sapiens, UniProt P49761); assay: Inhibition of CLK3 (unknown origin) by ADP-Glo assay
Target sequence in this assay (P49761 whole entry): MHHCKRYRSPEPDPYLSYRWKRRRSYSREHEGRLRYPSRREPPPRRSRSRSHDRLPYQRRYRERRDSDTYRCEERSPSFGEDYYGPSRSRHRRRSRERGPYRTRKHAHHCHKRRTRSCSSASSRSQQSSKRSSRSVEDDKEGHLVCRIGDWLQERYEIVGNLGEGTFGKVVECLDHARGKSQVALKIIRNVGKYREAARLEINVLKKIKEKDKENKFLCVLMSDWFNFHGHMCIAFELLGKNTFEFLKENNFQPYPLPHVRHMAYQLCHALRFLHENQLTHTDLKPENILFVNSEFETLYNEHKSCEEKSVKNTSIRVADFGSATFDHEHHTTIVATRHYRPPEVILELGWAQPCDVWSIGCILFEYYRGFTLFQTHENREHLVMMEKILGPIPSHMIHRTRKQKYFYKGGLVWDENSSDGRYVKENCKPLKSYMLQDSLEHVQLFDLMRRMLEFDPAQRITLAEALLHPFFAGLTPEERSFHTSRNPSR

NCI-H1299 [21] = assay: Induction of apoptosis in human NCI-H1299 cells assessed as downregulation of ERK expression incubated for 48 hrs by Western blotting analysis; type: functional, cell-based
NCI-H1299 [22] = assay: Induction of autophagy in human NCI-H1299 cells assessed as effect on LC3I protein expression at 0.1 to 1 uM incubated for 48 hrs by Western blotting analysis; type: functional, cell-based; conditions: dose 0.1-1 µM
NCI-H1299 [23] = assay: Induction of apoptosis in human NCI-H1299 cells assessed as early apoptotic cells at 1 uM incubated for 24 hrs by annexin V-FITC/PI staining based flow cytometric analysis (reference value: 0.49 %); type: functional
NCI-H1299 [24] = assay: Inhibition of Wnt pathway in human NCI-H1299 cells assessed as downregulation of Axin2 expression at 0.1 to 1 uM incubated for 48 hrs by Western blotting analysis; type: cell-based; conditions: dose 0.1-1 µM
[25] = molecular target: Dual specificity tyrosine-phosphorylation-regulated kinase 1B (Homo sapiens) (UniProt Q9Y463); assay: Inhibition of DYRK1B (unknown origin) at 100 nM by ADP-Glo assay relative to control
Dual specificity tyrosine-phosphorylation-regulated kinase 1B (Homo sapiens), sequence (Q9Y463 whole entry, looked up): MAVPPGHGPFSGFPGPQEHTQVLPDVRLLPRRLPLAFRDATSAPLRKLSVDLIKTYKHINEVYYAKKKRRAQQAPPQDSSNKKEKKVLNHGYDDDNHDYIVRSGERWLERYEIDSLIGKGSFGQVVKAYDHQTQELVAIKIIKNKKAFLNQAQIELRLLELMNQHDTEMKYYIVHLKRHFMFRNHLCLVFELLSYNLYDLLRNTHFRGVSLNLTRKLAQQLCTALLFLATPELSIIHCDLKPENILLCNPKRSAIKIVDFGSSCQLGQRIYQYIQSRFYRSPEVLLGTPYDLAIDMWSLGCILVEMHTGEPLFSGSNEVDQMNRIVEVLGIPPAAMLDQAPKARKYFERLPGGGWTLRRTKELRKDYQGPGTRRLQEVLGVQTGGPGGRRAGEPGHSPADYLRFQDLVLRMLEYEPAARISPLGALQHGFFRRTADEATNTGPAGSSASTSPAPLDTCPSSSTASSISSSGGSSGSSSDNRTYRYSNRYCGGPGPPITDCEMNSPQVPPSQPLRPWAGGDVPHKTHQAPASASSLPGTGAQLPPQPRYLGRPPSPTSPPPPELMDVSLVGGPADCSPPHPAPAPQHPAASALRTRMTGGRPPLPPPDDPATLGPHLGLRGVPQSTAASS

NCI-H1299 [26] = assay: Induction of apoptosis in human NCI-H1299 cells assessed as necrotic cells at 1 uM incubated for 24 hrs by annexin V-FITC/PI staining based flow cytometric analysis (reference value: 2.28 %); type: functional
NCI-H1299 [27] = assay: Induction of apoptosis in human NCI-H1299 cells assessed as necrotic cells at 0.1 uM incubated for 24 hrs by annexin V-FITC/PI staining based flow cytometric analysis (reference value: 2.28 %); type: functional
NCI-H1299 [28] = assay: Induction of apoptosis in human NCI-H1299 cells assessed as downregulation of BCL-2 expression at 0.1 to 1 uM incubated for 48 hrs by Western blotting analysis; type: functional, cell-based; conditions: dose 0.1-1 µM
[29] = molecular target: T2, Dual specificity protein kinase CLK3; assay: Inhibition of CLK3 (unknown origin) at 100 nM by ADP-Glo assay relative to control
Target sequence in this assay (P49761 whole entry, looked up): as the sequence (P49761 whole entry) above

NCI-H1975 = assay: cells; conditions: Homo sapiens, NCI-H1975, 48 h
Description: Antiproliferative activity against human NCI-H1975 cells assessed as inhibition of cell growth incubated for 48 hrs by MTT assay

NCI-H1299 [30] = assay: Induction of apoptosis in human NCI-H1299 cells assessed as late apoptotic cells at 0.5 uM incubated for 24 hrs by annexin V-FITC/PI staining based flow cytometric analysis (reference value: 2.23 %); type: functional
NCI-H1299 [31] = assay: Induction of apoptosis in human NCI-H1299 cells assessed as early apoptotic cells at 0.5 uM incubated for 24 hrs by annexin V-FITC/PI staining based flow cytometric analysis (reference value: 0.49 %); type: functional
NCI-H1299 [32] = assay: Induction of autophagy in human NCI-H1299 cells assessed as downregulation of p62 expression at 0.1 to 1 uM incubated for 48 hrs by Western blotting analysis; type: functional, cell-based; conditions: dose 0.1-1 µM
NCI-H1299 [33] = assay: Induction of apoptosis in human NCI-H1299 cells assessed as necrotic cells at 0.5 uM incubated for 24 hrs by annexin V-FITC/PI staining based flow cytometric analysis (reference value: 2.28 %); type: functional

Structure (SMILES): FC1(F)CCN(Cc2cncc(-c3ccc4[nH]nc(-c5nc(-c6ccco6)c(-c6ccco6)[nH]5)c4c3)c2)C1
- viability at 0.25 µM (NCI-H1299 [1]): 92.1%
- Activity (NCI-H1299 [2]): 9.7%
- inhibition [3]: 98.1%
- viability at 0.1 µM (NCI-H1299 [4]): 96.2%
- Activity (NCI-H1299 [5]): 3.57%
- IC50 [6]: 0.0046 µM
- IC50 (A549): 0.17 µM
- Activity (NCI-H1299 [7]): Active
- inhibition (NCI-H1299 [8]): Active
- inhibition [9]: Active; Showed Stronger Inhibition Compared To Indazole 1
- Activity (NCI-H1299 [10]): 3.7%
- viability at 1 µM (NCI-H1299 [11]): 84.3%
- Activity (NCI-H1299 [12]): 5.23%
- IC50 (cells): 0.22 µM
- inhibition [13]: Active; Showed Stronger Inhibition Compared To Indazole 1
- inhibition [14]: 95%
- IC50 [15]: 0.21 µM
- inhibition (NCI-H1299 [16]): Dose-dependent-effect
- IC50 [17]: 0.238 µM
- viability at 0.5 µM (NCI-H1299 [18]): 85.7%
- Activity (NCI-H1299 [19]): 2.55%
- IC50 [20]: 0.0287 µM
- Activity (NCI-H1299 [21]): Dose-dependent-effect
- Activity (NCI-H1299 [22]): Active
- Activity (NCI-H1299 [23]): 9.75%
- inhibition (NCI-H1299 [24]): Active
- inhibition [25]: 84.4%
- Activity (NCI-H1299 [26]): 0.74%
- Activity (NCI-H1299 [27]): 1.1%
- Activity (NCI-H1299 [28]): Active
- inhibition [29]: 103%
- IC50 (NCI-H1975): 0.15 µM
- Activity (NCI-H1299 [30]): 5.16%
- Activity (NCI-H1299 [31]): 8.27%
- Activity (NCI-H1299 [32]): Active
- Activity (NCI-H1299 [33]): 0.89%
